Test system: S. aureus, P. aeruginosa, and E. coli
Experiment: Mixed bacterial challenge of preserved anionic protein shampoo samples (plate counts)
Format: cell-based
Experimental: Each anionic shampoo sample in Table 1 below was tested as follows. A standardized mixed bacterial solution was prepared according to the following procedure. 3 agar stabs of S. aureus (ATCC#6538), P. aeruginosa (ATCC#9027), and E. coli (ATCC #8739) were separately incubated at about 35° C. for about 24 hours. Each stab was then washed with 3 mL of sterile 0.85% saline solution. The washes of the 3 stabs were pooled together to form an organism mixture. The absorbance of the organism mixture at 530 nm was adjusted to about 1.00 by adding saline. The spectrometer was calibrated with a saline blank. A 5 mL aliquot of the organism mixture was mixed together to produce the standardized mixed bacterial solution. Then, 40 g of each shampoo sample was inoculated with 0.2 mL of the standardized mixed bacterial solution and mixed. 1 g of the mixture was added to a sterile 20×150 mm screw cap test tube. 9 mL of sterile D/E neutralizer broth was added to the test tube and mixed to form a 10^−1 dilution,. Serial dilutions were prepared through to a 10^−6 dilution with phosphate buffered water. The serial dilutions were plated onto Tryptic Soy Agar and incubated for 2 days at about 35° C. Bacteria counts were performed after 0 and 14 days.
The anionic protein shampoo composition was comprised of 35% by weight of sodium lauryl ether sulfate; 25% by weight of triethanolamine lauryl sulfate; 3% by weight coconut diethanolamide (cocamide DEA); 1% by weight of hydrolyzed collagen, available as Polypro 5000™ from Hormel Foods of Austin, Minn.; and 36% by weight of deionized water.
The sodium dehydroacetate monohydrate, sodium salicylate, and Hyamine® 1622 shampoo samples were prepared by mixing the appropriate amounts of the preservatives and the aforementioned anionic protein shampoo composition and heating the mixture to about 50° C. for about 15 minutes.
The procedure described in Example 1 was repeated with the anionic shampoos in Table 3 below. The bacterial counts were performed after 0 and 7 days. The dehydroacetic acid (available from Lonza Inc. of Fair Lawn, N.J.) and Hyamine® 1622 shampoo samples were prepared by mixing the appropriate amounts of the preservatives and the anionic protein shampoo composition and heating the mixture to about 50° C. for about 15 minutes.
The procedure described in Example 1 was repeated with the anionic shampoos in Table 5 below. The salicylic acid (available from Spectrum Chemical of New Brunswick, N.J.) and Hyamine® 1622 shampoo samples were prepared by mixing the appropriate amounts of the preservatives and the anionic protein shampoo composition and heating the mixture to about 50° C. for 15 minutes.

[1] = Table 1, 1.0% by weight of preservative alone
[2] = Table 1, 0.5% by weight of preservative alone
[3] = Table 5, 0.2% of preservative alone

## O=C([O-])c1ccccc1O.[Na+] [Sodium Salicylate, Sodium salicylate]
[1]
  S. aureus, P. aeruginosa, and E. coli (cfu/g) Day 0: 3.0 × 10^6 cfu/g
  S. aureus, P. aeruginosa, and E. coli (cfu/g) Day 14: 5.0 × 10^2 cfu/g

## CC(=O)C1C(=O)C=C(C)OC1=O (centres unmarked) [Dehydroacetic Acid, dehydroacetic acid]
Table 3, 0.2% of preservative alone
  S. aureus, P. aeruginosa, and E. coli (cfu/g) Day 0: 2.5 × 10^6 cfu/g
Table 3, 0.2% of preservative alone, Day 7
  S. aureus, P. aeruginosa, and E. Coli (cfu/g) Day 7: 4.4 × 10^4 cfu/g

## CC(=O)c1c([O-])cc(C)oc1=O.O.[Na+] [Sodium Dehydroacetate Monohydrate, Sodium dehydroacetate monohydrate]
[2]
  S. aureus, P. aeruginosa, and E. coli (cfu/g) Day 0: 3.0 × 10^6 cfu/g
  S. aureus, P. aeruginosa, and E. coli (cfu/g) Day 14: 4.0 × 10^3 cfu/g

## O=C(O)c1ccccc1O [Salicylic Acid, salicylic acid]
[3]
  S. aureus, P. aeruginosa, and E. coli (cfu/g) Day 0: 3.1 × 10^6 cfu/g
  S. aureus, P. aeruginosa, and E. coli (cfu/g) Day 14: 6.5 × 10^6 cfu/g

— patent US20020165283A1, “Preservative blends containing quaternary ammonium compounds” (LONZA INC., priority 2001, published 2002)
